Activity calls are given as the source filed them.
Experiments:
RAW264.7 [1] = assay: Anti-inflammatory activity against LPS-induced mouse RAW264.7 cells assessed as inhibition of p65 nuclear translocation preincubated for 2 hrs followed by LPS addition and measured after 2 hrs by FITC/DAPI staining based laser confocal microscopy analysis; format: functional, cell-based; conditions: time 4.0 hrs
RAW264.7 [2] = assay: Anti-inflammatory activity against LPS-induced mouse RAW264.7 cells assessed as inhibition of IRF3 nuclear translocation preincubated for 2 hrs followed by LPS addition and measured after 2 hrs by FITC/DAPI staining based laser confocal microscopy analysis; format: functional, cell-based; conditions: time 4.0 hrs
RAW264.7 [3] = assay: Anti-inflammatory activity against LPS-induced mouse RAW264.7 cells assessed as decrease in IL-6 expression preincubated for 2 hrs followed by LPS addition and measured after 12 hrs by ELISA; format: functional, cell-based; conditions: time 14.0 hrs
RAW264.7 [4] = assay: Anti-inflammatory activity against LPS-induced mouse RAW264.7 cells assessed as decrease in TNF-alpha expression preincubated for 2 hrs followed by LPS addition and measured after 12 hrs by ELISA; format: functional, cell-based; conditions: time 14.0 hrs
RAW264.7 [5] = assay: Anti-inflammatory activity against LPS-induced mouse RAW264.7 cells assessed as decrease in IFN-beta expression preincubated for 2 hrs followed by LPS addition and measured after 12 hrs by ELISA; format: functional, cell-based; conditions: time 14.0 hrs
RAW264.7 [6] = assay: Anti-inflammatory activity against LPS-induced mouse RAW264.7 cells assessed as decrease in TBK1 phosphorylation at 1 uM by Western blotting analysis; format: functional, cell-based
RAW264.7 [7] = assay: Anti-inflammatory activity against LPS-induced mouse RAW264.7 cells assessed as decrease in IRF3 phosphorylation at 1 uM by Western blotting analysis; format: functional, cell-based
RAW264.7 [8] = assay: Anti-inflammatory activity against LPS-induced mouse RAW264.7 cells assessed as decrease in p65 phosphorylation at 1 uM by Western blotting analysis; format: functional, cell-based
RAW264.7 [9] = assay: Anti-inflammatory activity against LPS-induced mouse RAW264.7 cells assessed as decrease in IkappaB phosphorylation at 1 uM by Western blotting analysis; format: functional, cell-based
RAW264.7 [10] = assay: Anti-inflammatory activity against LPS-induced mouse RAW264.7 cells assessed as decrease in STING protein level at 1 uM by Western blotting analysis; format: functional, cell-based
Mus musculus [11] = assay: Anti-inflammatory activity against LPS-stimulated BALB/c mouse acute lung injury model assessed as decrease in STING expression at 2.5 mg/kg, po administered for 3 days by Western blotting analysis; format: functional, organism-based; conditions: time 3.0 day
Mus musculus [12] = assay: Anti-inflammatory activity against LPS-stimulated BALB/c mouse acute lung injury model assessed as decrease in TBK1 phosphorylation at 2.5 mg/kg, po administered for 3 days by Western blotting analysis; format: functional, organism-based; conditions: time 3.0 day
Mus musculus [13] = assay: Anti-inflammatory activity against LPS-stimulated BALB/c mouse acute lung injury model assessed as decrease in IRF3 phosphorylation at 2.5 mg/kg, po administered for 3 days by Western blotting analysis; format: functional, organism-based; conditions: time 3.0 day
Mus musculus [14] = assay: Anti-inflammatory activity against LPS-stimulated BALB/c mouse acute lung injury model assessed as decrease in p65 phosphorylation at 2.5 mg/kg, po administered for 3 days by Western blotting analysis; format: functional, organism-based; conditions: time 3.0 day
Mus musculus [15] = assay: Anti-inflammatory activity against LPS-stimulated BALB/c mouse acute lung injury model assessed as decrease in IkappaB phosphorylation at 2.5 mg/kg, po administered for 3 days by Western blotting analysis; format: functional, organism-based; conditions: time 3.0 day
Mus musculus [16] = assay: Antiinflammatory activity against TPA-induced mouse ear edema model assessed as reduction in ear edema at 40 mg/kg, po administered for 7 consecutive days; format: functional; set-up: scale not given: the % may be the effect or the level left; conditions: time 7 day
[17] = Cytotoxicity against mouse RAW264.7 cells assessed as cell viability at 40 uM incubated for 24 hrs by MTT assay relative to control; format: toxicity, cell-based; conditions: read-out: Activity
RAW264.7 [18] = assay: Anti-inflammatory activity against LPS-induced mouse RAW264.7 cells assessed as inhibition of NO production at 10 uM preincubated for 2 hrs followed by LPS addition and measured after 24 hrs by Griess reagent-based microplate reader analysis relative to control; format: functional; set-up: scale not given: the % may be the effect or the level left; conditions: time 26 hrs
RAW264.7 [19] = assay: Anti-inflammatory activity against LPS-induced mouse RAW264.7 cells assessed as inhibition of NO production at 20 uM preincubated for 2 hrs followed by LPS addition and measured after 24 hrs by Griess reagent-based microplate reader analysis relative to control; format: functional; set-up: scale not given: the % may be the effect or the level left; conditions: time 26 hrs
[20] = biological target: T1, Stimulator of interferon genes protein (Mus musculus) (UniProt Q3TBT3); assay: Binding affinity to STING in mouse RAW264.7 cells assessed as reduction in protein degradation at 40 uM at 40 to 61 degreeC incubated for 12 hrs by thermal shift assay; format: cell-based
T1 sequence (whole entry): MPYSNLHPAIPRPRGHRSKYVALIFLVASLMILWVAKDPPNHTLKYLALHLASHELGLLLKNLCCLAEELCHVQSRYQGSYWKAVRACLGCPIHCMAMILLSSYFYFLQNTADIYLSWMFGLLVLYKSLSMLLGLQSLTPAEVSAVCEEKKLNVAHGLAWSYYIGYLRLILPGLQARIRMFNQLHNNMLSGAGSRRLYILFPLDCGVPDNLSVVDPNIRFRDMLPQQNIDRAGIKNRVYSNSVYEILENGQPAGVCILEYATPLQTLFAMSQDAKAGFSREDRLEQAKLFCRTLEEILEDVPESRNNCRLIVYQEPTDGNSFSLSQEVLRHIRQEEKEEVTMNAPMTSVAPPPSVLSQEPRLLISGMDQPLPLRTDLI

[21] = biological target: T1, Stimulator of interferon genes protein (Mus musculus); assay: Binding affinity to STING in mouse RAW264.7 cells assessed as protein stabilization at 49 degreeC incubated for 12 hrs by thermal shift assay; format: cell-based; conditions: dose 0.4-40 µM
[22] = biological target: T1, Stimulator of interferon genes protein (Mus musculus); assay: Binding affinity to STING in mouse RAW264.7 cells assessed as inhibition of protein degradation at 4 to 40 uM at 49 degreeC incubated for 12 hrs by thermal shift assay; format: cell-based; conditions: dose 4-40 µM
RAW264.7 [23] = assay: Anti-inflammatory activity against LPS-induced mouse RAW264.7 cells assessed as inhibition of p65 nuclear translocation at 5 uM preincubated for 2 hrs followed by LPS addition and measured after 2 hrs by FITC/DAPI staining based laser confocal microscopy analysis; format: functional, cell-based; conditions: time 4.0 hrs
RAW264.7 [24] = assay: Anti-inflammatory activity against LPS-induced mouse RAW264.7 cells assessed as inhibition of IRF3 nuclear translocation at 5 uM preincubated for 2 hrs followed by LPS addition and measured after 2 hrs by FITC/DAPI staining based laser confocal microscopy analysis; format: functional, cell-based; conditions: time 4.0 hrs
RAW264.7 [25] = assay: Anti-inflammatory activity against LPS-induced mouse RAW264.7 cells assessed as decrease in IL-6 expression at 1.25 to 5 uM preincubated for 2 hrs followed by LPS addition and measured after 12 hrs by ELISA; format: functional, cell-based; conditions: dose 1.25-5 µM, time 14.0 hrs
RAW264.7 [26] = assay: Anti-inflammatory activity against LPS-induced mouse RAW264.7 cells assessed as decrease in TNF-alpha expression at 1.25 to 5 uM preincubated for 2 hrs followed by LPS addition and measured after 12 hrs by ELISA; format: functional, cell-based; conditions: dose 1.25-5 µM, time 14.0 hrs
RAW264.7 [27] = assay: Anti-inflammatory activity against LPS-induced mouse RAW264.7 cells assessed as decrease in IFN-beta expression at 1.25 to 5 uM preincubated for 2 hrs followed by LPS addition and measured after 12 hrs by ELISA; format: functional, cell-based; conditions: dose 1.25-5 µM, time 14.0 hrs
RAW264.7 [28] = assay: Anti-inflammatory activity against LPS-induced mouse RAW264.7 cells assessed as decrease in TBK1 phosphorylation at 1.25 to 5 uM by Western blotting analysis; format: functional, cell-based; conditions: dose 1.25-5 µM
RAW264.7 [29] = assay: Anti-inflammatory activity against LPS-induced mouse RAW264.7 cells assessed as decrease in IRF3 phosphorylation at 1.25 to 5 uM by Western blotting analysis; format: functional, cell-based; conditions: dose 1.25-5 µM
RAW264.7 [30] = assay: Anti-inflammatory activity against LPS-induced mouse RAW264.7 cells assessed as decrease in p65 phosphorylation at 1.25 to 5 uM by Western blotting analysis; format: functional, cell-based; conditions: dose 1.25-5 µM
RAW264.7 [31] = assay: Anti-inflammatory activity against LPS-induced mouse RAW264.7 cells assessed as decrease in IkappaB phosphorylation at 1.25 to 5 uM by Western blotting analysis; format: functional, cell-based; conditions: dose 1.25-5 µM
RAW264.7 [32] = assay: Anti-inflammatory activity against LPS-induced mouse RAW264.7 cells assessed as decrease in STING protein level at 1.25 to 5 uM by Western blotting analysis; format: functional, cell-based; conditions: dose 1.25-5 µM
Mus musculus [33] = assay: Anti-inflammatory activity against LPS-stimulated BALB/c mouse acute lung injury model assessed as decrease in pulmonary edema in lung tissue at 1.25 to 5 mg/kg, po administered for 3 days by hematoxylin and eosin staining based analysis; format: functional, organism-based; conditions: dose 1.25-5 mg/kg, time 3.0 day
Mus musculus [34] = assay: Anti-inflammatory activity against LPS-stimulated BALB/c mouse acute lung injury model assessed as decrease in MDA level in lung tissue at 1.25 to 5 mg/kg, po administered for 3 days by colorimetric method; format: functional, organism-based; conditions: dose 1.25-5 mg/kg, time 3.0 day
Mus musculus [35] = assay: Anti-inflammatory activity against LPS-stimulated BALB/c mouse acute lung injury model assessed as increase in SOD level in lung tissue at 1.25 to 5 mg/kg, po administered for 3 days by colorimetric method; format: functional, organism-based; conditions: dose 1.25-5 mg/kg, time 3.0 day
Mus musculus [36] = assay: Anti-inflammatory activity against LPS-stimulated BALB/c mouse acute lung injury model assessed as decrease in STING expression at 1.25 to 5 mg/kg, po administered for 3 days by Western blotting analysis; format: functional, organism-based; conditions: dose 1.25-5 mg/kg, time 3.0 day
Mus musculus [37] = assay: Anti-inflammatory activity against LPS-stimulated BALB/c mouse acute lung injury model assessed as decrease in TBK1 phosphorylation at 1.25 to 5 mg/kg, po administered for 3 days by Western blotting analysis; format: functional, organism-based; conditions: dose 1.25-5 mg/kg, time 3.0 day
Mus musculus [38] = assay: Anti-inflammatory activity against LPS-stimulated BALB/c mouse acute lung injury model assessed as decrease in IRF3 phosphorylation at 1.25 to 5 mg/kg, po administered for 3 days by Western blotting analysis; format: functional, organism-based; conditions: dose 1.25-5 mg/kg, time 3.0 day
Mus musculus [39] = assay: Anti-inflammatory activity against LPS-stimulated BALB/c mouse acute lung injury model assessed as decrease in p65 phosphorylation at 1.25 to 5 mg/kg, po administered for 3 days by Western blotting analysis; format: functional, organism-based; conditions: dose 1.25-5 mg/kg, time 3.0 day
Mus musculus [40] = assay: Anti-inflammatory activity against LPS-stimulated BALB/c mouse acute lung injury model assessed as decrease in IkappaB phosphorylation at 1.25 to 5 mg/kg, po administered for 3 days by Western blotting analysis; format: functional, organism-based; conditions: dose 1.25-5 mg/kg, time 3.0 day
Mus musculus [41] = assay: Anti-inflammatory activity against LPS-stimulated BALB/c mouse assessed as decrease in IL-6 level in BALF administered for 3 days by Western blotting analysis; format: functional, organism-based; conditions: dose 1.25-5 mg/kg, route po, time 3.0 day
Mus musculus [42] = assay: Anti-inflammatory activity against LPS-stimulated BALB/c mouse assessed as decrease in TNF-alpha level in BALF administered for 3 days by Western blotting analysis; format: functional, organism-based; conditions: dose 1.25-5 mg/kg, route po, time 3.0 day
Mus musculus [43] = assay: Anti-inflammatory activity against LPS-stimulated BALB/c mouse assessed as decrease in IFN-beta level in BALF administered for 3 days by Western blotting analysis; format: functional, organism-based; conditions: dose 1.25-5 mg/kg, route po, time 3.0 day

O=C(Nc1ccc(I)cc1)c1ccc([N+](=O)[O-])o1
active: Activity (RAW264.7 [1]) | Activity (RAW264.7 [2]) | Activity (RAW264.7 [3]) | Activity (RAW264.7 [4]) | Activity (RAW264.7 [5]) | Activity (RAW264.7 [6]) | Activity (RAW264.7 [7]) | Activity (RAW264.7 [8]) | Activity (RAW264.7 [9]) | Activity (RAW264.7 [10]) | Activity (Mus musculus [11]) | Activity (Mus musculus [12]) | Activity (Mus musculus [13]) | Activity (Mus musculus [14]) | Activity (Mus musculus [15])

CC1(C)C(=O)/C(=C\c2cnccn2)C[C@]2(C)[C@H]3CC=C4[C@@H]5C[C@@](C)(C(=O)O)CC[C@]5(C)CC[C@@]4(C)[C@]3(C)CC[C@@H]12
59.69%: Activity (Mus musculus [16])

CC1(C)CC[C@]2(C(=O)OCc3ccccc3)CC[C@]3(C)C(=CC[C@@H]4[C@@]5(C)CCC(=O)[C@@](C)(COC(=O)CCCNC(=O)CCCC[C@@H]6CCSS6)[C@@H]5CC[C@]43C)[C@@H]2C1
100%: viability at 24 h, 40 µM [17]
active: Activity [20] | Activity [21] Dose-Dependent Effect | Activity [22] | Activity (RAW264.7 [23]) | Activity (RAW264.7 [24]) | Activity (RAW264.7 [25]) | Activity (RAW264.7 [26]) | Activity (RAW264.7 [27]) | Activity (RAW264.7 [28]) | Activity (RAW264.7 [29]) | Activity (RAW264.7 [30]) | Activity (RAW264.7 [31]) | Activity (RAW264.7 [32]) | Activity (Mus musculus [33]) | Activity (Mus musculus [34]) | Activity (Mus musculus [35]) | Activity (Mus musculus [36]) | Activity (Mus musculus [37]) | Activity (Mus musculus [38]) | Activity (Mus musculus [39]) | Activity (Mus musculus [40]) | Activity (Mus musculus [41]) Dose-Dependent Effect | Activity (Mus musculus [42]) Dose-Dependent Effect | Activity (Mus musculus [43]) Dose-Dependent Effect
81.7%: Activity (RAW264.7 [19])
69.78%: Activity (RAW264.7 [18])

Reference: ChEMBL document CHEMBL5537127, “Design and synthesis of novel hederagonic acid analogs as potent anti-inflammatory compounds capable of protecting against LPS-induced acute lung injury” (Eur J Med Chem, 2024)
